The NIST ThermoML archive (doi:10.1016/j.jct.2018.12.023)
± gives the expanded uncertainty stated by the source.

Conditions: Liquid, Ebulliometric method (Recirculating still)

## CCO [ethanol]
351.45 K
  vapor or sublimation pressure: 101.3 ± 1.6 kPa

## CCOC(=O)CC [ethyl propanoate]
372.25 K
  vapor or sublimation pressure: 101.3 ± 1.6 kPa

## CCI [iodoethane]
345.5 K
  vapor or sublimation pressure: 101.3 ± 1.6 kPa

## CCC(=O)O [propanoic acid]
414.32 K
  vapor or sublimation pressure: 101.3 ± 1.6 kPa
